Source: publication PMC8058344, “ARIH1 signaling promotes anti-tumor immunity by targeting PD-L1 for proteasomal degradation” (Nature Communications, 2021)

Key:
IGF1R = IGF1R (Homo sapiens, UniProt P08069); test: In vitro kinase specificity profiling; assay type: biochemical
CDK6 = CDK6 (Homo sapiens, UniProt Q00534); test: In vitro kinase specificity profiling; assay type: biochemical
CMET = CMET (Homo sapiens, UniProt P08581); test: In vitro kinase specificity profiling; assay type: biochemical
PD-L1 = PD-L1 phosphorylation sites by mass spectrometry in HEK293T cells transfected with Flag-PD-L1; assay type: cell-based, human; conditions: Flag-PD-L1, 10 μM ES-072 48 h, MS-MS
Description: Fig. 2 Phosphorylation on S279/S283 impairs the stability of PD-L1. a Mapping PD-L1 phosphorylation sites following ES-072 treatment. HEK293T cells were transfected with Flag-PD-L1 and treated with 10 μM ES-072 for 48 h. Immunoprecipitated PD-L1 was analyzed by mass spectrometry following phosphopeptide enrichment. Peptide ionization data corresponding to Ser279/283 are shown. b Schematic diagram of phosphorylated sites on PD-L1. Full-length PD-L1 was separated into an extracellular domain (ECD) and intracellular domain (ICD). SP: signal peptide; TM: transmembrane domain. c Schematic diagram of phosphorylated sites, S279 and S283 in the ICD of PD-L1. Positions of phosphorylated sites were labeled in red. This image was created by the first author. d Immunoblots of PD-L1 (anti-Flag) in HEK293T cells transfected with Flag-PD-L1 (WT) or Flag-PD-L1 (mutants) following treatment with 25 ng/mL EGF and/or 10 μM ES-072 for 48 h, 2SA represents S279A/S283A. e Immunoblots of PD-L1 (anti-Flag) in HEK293T cells transfected with Flag-PD-L1 (WT/2SA) following treatment with 20 μg/mL cycloheximide (CHX) for indicated times. f Immunoblots of H1975 cell lysates following ES-072 treatment for 2 h, at indicated doses. g HEK293T cells were transfected with Flag-PD-L1 (WT/2SA) following treatment with 10 μM ES-072 for 2 h; PD-L1 was immunoprecipitated with anti-Flag and immunoblotted with indicated antibodies. Flag-tagged empty vector (Flag-EV) was transfected as a negative control. h Representative images of p-PD-L1 (Ser279) and PD-L1 immunohistochemistry (IHC) staining from EGFR wild-type vs. mutant human alveolar adenocarcinoma specimens. Scale bars represent 50 μm. i, j Quantification of IHC analysis for p-PD-L1 (Ser279) (i) and PD-L1 (j) in h. Data represent means ± SEM, n = 7 (i), n = 5 (j), **P < 0.01, P = 0.0013 (i); P = 0.002 (j). k Immunoblottings of p-PD-L1 (Ser279) and PD-L1 in EGFR wild-type (n = 4) vs. mutant (n = 4) human lung adenocarcinoma specimens. Source data are provided as a Source Data file.
Flag-tagged PD-L1 was overexpressed in HEK293T cells and were trypsin-digested. PD-L1 was immunoprecipitated with beads following immunoprecipitation. The resulting peptides were subjected to the phosphopeptide enrichment using TiO2 beads. The enriched phospho-peptides were analyzed on the Q Exactive™ HF mass spectrometer (Thermo Fisher Scientific). The identification and quantification of phosphorylated peptides were done by MaxQuant. The tandem mass spectra were searched against the UniProt human protein database together with a set of commonly observed contaminants. The precursor mass tolerance was set as 20 p.p.m. and the fragment mass tolerance was set as 0.1 Da. The […] cysteine carbamide methylation was set as a static modification and the methionine oxidation, as well as serine, threonine, and tyrosine phosphorylation, were set as variable modifications. The false discovery rate (FDR) at peptide spectrum match level was controlled below 1%.

IGF1R, sequence (P08069 31-1367, species assumed): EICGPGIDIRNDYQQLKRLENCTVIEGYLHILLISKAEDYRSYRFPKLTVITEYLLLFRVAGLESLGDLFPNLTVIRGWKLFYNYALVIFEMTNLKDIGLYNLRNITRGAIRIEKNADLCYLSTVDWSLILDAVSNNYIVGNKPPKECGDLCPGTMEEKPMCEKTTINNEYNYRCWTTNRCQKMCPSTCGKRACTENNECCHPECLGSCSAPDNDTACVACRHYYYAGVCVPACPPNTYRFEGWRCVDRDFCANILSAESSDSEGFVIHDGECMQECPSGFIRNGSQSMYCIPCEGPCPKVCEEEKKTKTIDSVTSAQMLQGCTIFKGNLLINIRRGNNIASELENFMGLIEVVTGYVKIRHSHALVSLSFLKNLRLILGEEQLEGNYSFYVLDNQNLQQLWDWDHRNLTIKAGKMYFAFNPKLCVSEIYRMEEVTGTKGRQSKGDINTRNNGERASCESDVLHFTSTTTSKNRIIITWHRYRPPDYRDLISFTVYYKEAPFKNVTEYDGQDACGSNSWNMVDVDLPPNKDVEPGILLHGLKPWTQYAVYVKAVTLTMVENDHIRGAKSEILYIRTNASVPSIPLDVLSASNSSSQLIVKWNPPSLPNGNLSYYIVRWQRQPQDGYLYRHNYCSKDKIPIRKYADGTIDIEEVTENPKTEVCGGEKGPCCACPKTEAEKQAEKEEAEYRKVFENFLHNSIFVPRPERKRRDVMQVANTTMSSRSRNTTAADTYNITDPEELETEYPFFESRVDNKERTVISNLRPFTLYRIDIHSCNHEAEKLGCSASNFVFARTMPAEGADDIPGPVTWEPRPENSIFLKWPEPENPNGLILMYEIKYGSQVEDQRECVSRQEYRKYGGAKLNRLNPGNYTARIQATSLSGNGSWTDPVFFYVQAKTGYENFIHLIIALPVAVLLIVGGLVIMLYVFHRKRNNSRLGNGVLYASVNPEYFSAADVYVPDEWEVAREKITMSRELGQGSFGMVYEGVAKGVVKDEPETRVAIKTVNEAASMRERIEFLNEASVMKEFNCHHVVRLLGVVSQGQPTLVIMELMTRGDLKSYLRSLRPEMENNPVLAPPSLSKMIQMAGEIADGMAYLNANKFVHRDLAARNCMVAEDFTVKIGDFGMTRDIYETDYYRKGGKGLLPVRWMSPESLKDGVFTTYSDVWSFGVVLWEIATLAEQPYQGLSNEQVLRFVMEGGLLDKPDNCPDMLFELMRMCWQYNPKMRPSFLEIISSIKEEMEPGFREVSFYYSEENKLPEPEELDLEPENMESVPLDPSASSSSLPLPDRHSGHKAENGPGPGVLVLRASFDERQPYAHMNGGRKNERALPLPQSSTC
CMET, sequence (P08581 25-1390): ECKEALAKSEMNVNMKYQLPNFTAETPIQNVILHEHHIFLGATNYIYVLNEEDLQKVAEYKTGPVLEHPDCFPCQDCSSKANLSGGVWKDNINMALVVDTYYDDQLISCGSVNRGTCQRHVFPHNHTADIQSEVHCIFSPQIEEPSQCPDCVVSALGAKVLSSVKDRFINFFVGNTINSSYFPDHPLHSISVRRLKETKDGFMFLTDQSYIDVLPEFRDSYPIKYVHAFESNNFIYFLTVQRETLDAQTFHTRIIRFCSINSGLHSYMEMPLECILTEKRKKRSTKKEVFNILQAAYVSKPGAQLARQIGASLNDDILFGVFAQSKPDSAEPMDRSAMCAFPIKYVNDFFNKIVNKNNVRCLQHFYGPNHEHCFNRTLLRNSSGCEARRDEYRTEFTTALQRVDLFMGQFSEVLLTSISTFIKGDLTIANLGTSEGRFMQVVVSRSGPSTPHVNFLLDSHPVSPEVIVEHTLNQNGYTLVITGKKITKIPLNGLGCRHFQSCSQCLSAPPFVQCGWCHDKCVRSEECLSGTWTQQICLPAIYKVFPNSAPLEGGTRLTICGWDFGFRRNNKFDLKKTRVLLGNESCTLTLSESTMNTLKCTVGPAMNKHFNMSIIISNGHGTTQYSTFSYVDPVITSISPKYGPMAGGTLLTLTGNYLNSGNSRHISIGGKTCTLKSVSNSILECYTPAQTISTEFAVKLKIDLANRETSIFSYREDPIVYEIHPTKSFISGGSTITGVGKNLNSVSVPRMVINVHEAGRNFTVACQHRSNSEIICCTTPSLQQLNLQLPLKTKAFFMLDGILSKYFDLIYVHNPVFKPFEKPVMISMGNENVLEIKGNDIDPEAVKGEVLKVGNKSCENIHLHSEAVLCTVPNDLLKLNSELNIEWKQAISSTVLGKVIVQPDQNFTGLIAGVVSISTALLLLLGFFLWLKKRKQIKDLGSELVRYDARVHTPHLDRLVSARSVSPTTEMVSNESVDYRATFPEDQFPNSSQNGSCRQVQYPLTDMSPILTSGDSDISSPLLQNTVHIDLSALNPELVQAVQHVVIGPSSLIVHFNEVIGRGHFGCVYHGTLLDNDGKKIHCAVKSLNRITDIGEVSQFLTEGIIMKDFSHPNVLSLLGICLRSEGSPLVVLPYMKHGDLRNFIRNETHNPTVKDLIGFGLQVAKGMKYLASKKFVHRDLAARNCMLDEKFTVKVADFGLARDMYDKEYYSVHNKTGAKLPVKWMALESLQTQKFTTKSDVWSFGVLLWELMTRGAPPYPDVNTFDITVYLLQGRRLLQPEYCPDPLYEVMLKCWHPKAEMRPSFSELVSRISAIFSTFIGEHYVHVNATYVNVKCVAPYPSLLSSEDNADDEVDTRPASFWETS
CDK6, sequence (Q00534 whole entry, species assumed): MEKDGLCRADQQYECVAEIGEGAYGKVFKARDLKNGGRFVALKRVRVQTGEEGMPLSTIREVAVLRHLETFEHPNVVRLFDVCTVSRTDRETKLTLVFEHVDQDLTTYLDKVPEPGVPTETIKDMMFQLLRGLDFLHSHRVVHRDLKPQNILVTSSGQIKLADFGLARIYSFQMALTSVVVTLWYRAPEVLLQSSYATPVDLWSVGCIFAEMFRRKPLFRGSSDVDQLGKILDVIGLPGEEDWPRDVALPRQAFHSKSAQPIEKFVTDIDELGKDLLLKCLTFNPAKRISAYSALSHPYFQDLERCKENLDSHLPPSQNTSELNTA
CDK6, sequence (P30281 whole entry partner, species assumed): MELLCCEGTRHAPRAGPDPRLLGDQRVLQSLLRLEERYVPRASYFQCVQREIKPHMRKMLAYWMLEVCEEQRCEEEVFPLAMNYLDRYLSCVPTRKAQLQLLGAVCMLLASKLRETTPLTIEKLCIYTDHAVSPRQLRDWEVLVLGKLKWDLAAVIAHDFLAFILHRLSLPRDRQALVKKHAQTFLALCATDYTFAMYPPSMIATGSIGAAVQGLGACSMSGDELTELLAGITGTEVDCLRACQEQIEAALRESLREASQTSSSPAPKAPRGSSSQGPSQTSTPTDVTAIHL

Structure (SMILES): C=CC(=O)Nc1cccc(Nc2nc(Nc3ccc(N4CCN(C)CC4)nc3OC)ncc2C(F)(F)F)c1 [ES-072]
- IC50 (IGF1R): 0.127 µM
- IC50 (CDK6): > 10 µM
- IC50 (CMET): > 10 µM
- ES/NC (PD-L1 phosphorylation site S79) (PD-L1): 1.28
- ES/NC (PD-L1 phosphorylation site S93) (PD-L1): 1.52
- ES/NC (PD-L1 phosphorylation site S170) (PD-L1): 0.00
- ES/NC (PD-L1 phosphorylation site S176) (PD-L1): 0.00
- ES/NC (PD-L1 phosphorylation site S279) (PD-L1): 5.00
- ES/NC (PD-L1 phosphorylation site S283) (PD-L1): 2.06
- ES/NC (PD-L1 phosphorylation site T290) (PD-L1): 1.95
